The record followed here is patent US20220249525A1, “Fatty Acid Compounds for Prevention and Treatment of Neurodegenerative Disorders” (T OMEGA AS, priority 2019, published 2022).

What all share (assay type): cell-based
Test [1] has as its system HCC827 cells. Kind of test: Mitochondria respiration assay (OCR, extracellular flux) in HCC827 cells. How it is done:
(§1) Non-small cell lung cancer cells, HCC827 (ATCC) were cultured in RPMI-1640 Glutamax medium (Sigma-Aldrich St. Louis, Mo., USA), under conventional culture conditions. Media was supplemented with 10% Fetal Bovine Serum (FBS), 1% glutamine and 1% streptomycin/penicillin (Sigma-Aldrich). HeLaNRF1/c4 reporter cells were cultured in Dulbecco's Modified Eagle's Medium (DMEM) supplemented with 10% FBS, 2 mM L-Glutamine, 100 u/ml penicillin/streptomycin (Sigma-Aldrich,). Incubation was done at 37° C. in 5% CO2.
Mitochondria function was analyzed by measuring oxygen consumption rate (OCR) by extracellular flux analysis in a Seahorse XFe96 instrument (Agilent Seahorse XF Technologies). The measurements were performed in DADA basic media without phenol red, supplemented with L-glutamine (2 mM), pyruvate (2 mM), and sodium chloride, NaCl (32 mM) (Sigma-Aldrich). Respiratory rates were measured following sequential additions of glucose (10 mM), oligomycin, carbonyl cyanide m-chlorophenyl hydrazine (CCCP) and a mixture of rotenone (1 μM) and antimycin A (1 μM). Before carrying out the measurements for each cell model, optimizations were done for; cell number, CCCP, and oligomycin concentrations. For the HCC 827 cell model optimal conditions were; 30,000 cells/well, 0.5 μM CCCP, and 3 μM Oligomycin; and in HeLaNRF1/c4 reporter cell model; 20,000 cells/well, 1 μM CCCP and 3 μM Oligomycin. The OCR measured initially (before any additions) represented the rate ‘basal respiration.’ The addition of ATP synthase inhibitor oligomycin provided oxygen consumption independent of ATP production (‘leak activity’). Maximal respiration (also referred to as ‘respiratory capacity’) was measured upon addition of the uncoupler CCCP. […] After the extracellular flux analysis the analysis plates were washed with Phosphate Buffered Saline (PBS) and frozen at −80° C. The BCA assay (Pierce BCA protein assay kit, Thermo Fisher Scientific, Waltham, Mass. USA) was employed to measure the protein content in the wells. To evaluate the effects of the different treatments, the respiratory rates from compound-treated wells were normalized to protein content, and calculated as percentage of the average respiratory rate of the DMSO-treated control wells. All treatments were performed with 6-8 replicate wells.

For test [2], the system named is HeLaNRF1/c4 reporter cells. Kind of test: Gene expression (qPCR) in HeLaNRF1/c4 reporter cells. The settings on record: long-term treatment. How it is done:
The HeLaNRF1/c4 reporter cells were employed to investigate effects of the modified fatty acids on NRF1-regulated mitochondrial biogenesis. The cells (250,000) were seeded in T75 flasks and incubated for 3 hours to allow attachment. The compounds were dissolved in DMSO and diluted in culture medium to provide the final concentration. DMSO at a concentration equivalent to the highest compound concentration was added to control cultures. Resveratrol and AICAR were used as positive controls. Resveratrol has not previously been tested in this reporter model, but we found it relevant to include it for purposes of experimental and mechanistic comparisons. After 3 days of treatment the media was replaced with fresh media containing the corresponding compound. On day 5, the cells were harvested and the cultures split into three fractions: One fraction was used for detection of mitoGFP expression by flow cytometry, to assess effects on NRF-1 regulated mitochondrial biogenesis. Flow cytometry analysis was performed as previously described. Another fraction was used for extraction of RNA and subsequent gene expression analysis using quantitative PCR (see below). The last fraction was employed to investigate effects on mitochondrial respiratory function by extracellular flux analysis (described above). The experiment was replicated three times.
Total RNA was extracted from harvested cells (RNAeasy kit Qiagen, Hilden, Germany). The RNA content was quantified on Nanodrop 1000 Spectrophotometer (Thermo Scientific). From 1 μg total RNA, cDNA was synthesized using High-Capacity Reverse Transcription Kit (Applied Biosystems, Carlsbad, Calif., US). Gene quantification was done using TaqMan probes for gene expression assays (Applied Biosystems). Probes used were: PGC1α (PPARG coactivator 1α), Hs00173304_m1; HIF1α (hypoxia inducible factor 1α), Hs00153153_m1; PDK1 (pyruvate dehydrogenase kinase 1), Hs01561847_m1; PDK4, (pyruvate dehydrogenase kinase 4), Hs01037712_m1; SIRT4 (sirtuin 4) Hs01015516_g1; ACOX1 (acyl-CoA oxidase 1) Hs01074241_m1; as reference genes, we used; Eukaryotic 18S rRNA Hs99999901_s1; actin beta Hs99999903_m1. Fold change was calculated as geometric mean of ΔΔCt of the two reference genes.
(Quantitative PCR measures a nucleic acid by following its amplification.)

The test system of test [3] is HeLaNRF1/c4 reporter cells. Kind of test: Resazurin conversion assay in HeLaNRF1/c4 reporter cells. As to conditions: test compounds 30 μM and 60 μM, long treatment. Here is the method: as §1
(§2) Cell viability/proliferation was determined by the resazurin conversion assay. A total of 4000 cells were seeded in each of the 96-well plates in 100 μl of medium. After 3 hours of incubation, 100 μl of fresh medium with respective concentration of the desired compound or controls were added. Resazurin solution (Sigma-Aldrich) was added (10%, v/v in PBS) after 1 or 3 day treatment, followed by 3 hour incubation at 37° C. and 5% CO2. Resazurin fluorescence (excitation, 540 nm; emission, 590 nm) was measured and measurements were corrected for background signals. […] Relative viability was calculated from percent fluorescence relative to DMSO-treated control wells.
In order to investigate if some of the compounds induce metabolic adaptations involving mitochondrial biogenesis, we employed the HeLaNRF1/c4 reporter cells in which activation of the transcription factor NRF1 triggers expression of GFP. Since adaptations of mitochondrial biogenesis are known to require some days to develop, we used a relatively low dosage (30 μM and 60 μM) of the compounds, to allow longer treatment period compared to the previous short term experiments.

Test [4] relates to HCC827 cells. Briefly: Resazurin conversion cell viability/proliferation assay in HCC827 cells. As to conditions: for overall effects on cell viability and mitochondrial function (summary): cultured cells, relatively high dosage. Here is the method:
as §1, §2

As to `CC#CCCCCCCCCCCCSCC(=O)O` [2-triple TTA, 2-(Tetradec-12-yn-1-ylthio)acetic acid], in the test with HCC827 cells [1], the “uncoupled respiratory capacity after CCCP” value is “stronger dose-dependent effect”. The “leak respiration after oligomycin” value in the test with HCC827 cells [1] (100 μM TTA, 200 μM 2-triple TTA, 30 μM TDG) is “significantly increased”. The PDK4 expression result in test [2] is given as “moderate effect”. The resazurin conversion entry in test [3] is on record as “little or no effect”. In the test on HCC827 cells [4] (HCC827 cells, 200 μM), the “viability (resazurin conversion)” value was “moderate antiproliferative effect”. Also, the “overall effects on cell viability and mitochondrial function (summary)” value (“overall effects” for short) with HCC827 cells [4] is reported as “harmful effects were significantly reduced”.
Consider `Oc1ccc(C=Cc2cc(O)cc(O)c2)cc1` [resveratrol, Resveratrol, reference compound], for which the “basal respiratory rate (OCR)” value in the test with HCC827 cells [1] (compared to control) is “little or no effect”. The resazurin conversion result in test [3] was “moderate reduction”.
`CCCC(SCC)C(=O)O` (stereo not drawn) [2-(ethylthio) pentanoic acid, 2-(ethylthio)pentanoic acid]: the “overall effects” value in the test on HCC827 cells [4] is given as “only minor effects”.
With `C#CCCCCCCCCCCCNCC(=O)O` [2-triple TDG, N-(tridec-12-yn-yl) glycine], the PDK4 expression entry in test [2] is “moderate effect”. Further, the resazurin conversion entry in test [3] was “no significant effect”. Also, the “overall effects” value with HCC827 cells [4] is recorded as “harmful effects were significantly reduced”.
